# Measured values as given in patent publication US20080021055A1, “Novel cycloalkyl derivatives as inhibitors of bone resorption and vitronectin receptor antagonists” (Aventis Pharma S.A., priority 1996, published 2008).
# Target: T1, vitronectin receptor αvβ3 (Homo sapiens, UniProt P05106+P06756)
# T1 construct: expressed in transfected cells
# Test: Vn/293 cell test: inhibition of the binding of 293 cells to human vitronectin
# Type: cell-based
# Settings: 293 cells cotransfected with αv and β3 subunits, binding to plates coated with human vitronectin, 90 min at 37° C.
# Text: The inhibitory action of the compounds according to the invention against the vitronectin receptor […] can be determined, for example, as described below:
# Test for the measurement of the inhibition of the binding of 293 cells to human vitronectin (abbreviated in the test results to Vn/293 cell test)
# 1. Purification of Human Vitronectin
# Human vitronectin was isolated from human plasma and purified by affinity chromatography according to the method of Yatohyo et al., Cell Structure and Function, 1988, 23, 281-292.
# 293 cells, a human embryonic kidney cell line, which were cotransfected with DNA sequences for the αv and β3 subunits of the vitronectin receptor were selected according to the FACS method with a view to a high expression rate (>500,000 αvβ3 receptors/cell). The selected cells were cultured and sorted again by means of FACS to obtain a stable cell line (15 D) with expression rates of >1,000,000 copies of αvβ3 per cell.
# A Linbro 96-well tissue culture plate with a flat bottom was coated overnight at 4° C. with human vitronectin (0.01 mg/ml, 0.05 ml/well) in phosphate-buffered saline solution (PBS) and then blocked with 0.5% strength BSA. […] The reaction was stopped with a glycine (50 mmol)/EDTA (5 mmol) buffer (pH 10.4) and the absorption of each well was measured at 405-650 nm. The data were evaluated using standard methods.
# T1 sequence (P06756 31-889 limits assumed): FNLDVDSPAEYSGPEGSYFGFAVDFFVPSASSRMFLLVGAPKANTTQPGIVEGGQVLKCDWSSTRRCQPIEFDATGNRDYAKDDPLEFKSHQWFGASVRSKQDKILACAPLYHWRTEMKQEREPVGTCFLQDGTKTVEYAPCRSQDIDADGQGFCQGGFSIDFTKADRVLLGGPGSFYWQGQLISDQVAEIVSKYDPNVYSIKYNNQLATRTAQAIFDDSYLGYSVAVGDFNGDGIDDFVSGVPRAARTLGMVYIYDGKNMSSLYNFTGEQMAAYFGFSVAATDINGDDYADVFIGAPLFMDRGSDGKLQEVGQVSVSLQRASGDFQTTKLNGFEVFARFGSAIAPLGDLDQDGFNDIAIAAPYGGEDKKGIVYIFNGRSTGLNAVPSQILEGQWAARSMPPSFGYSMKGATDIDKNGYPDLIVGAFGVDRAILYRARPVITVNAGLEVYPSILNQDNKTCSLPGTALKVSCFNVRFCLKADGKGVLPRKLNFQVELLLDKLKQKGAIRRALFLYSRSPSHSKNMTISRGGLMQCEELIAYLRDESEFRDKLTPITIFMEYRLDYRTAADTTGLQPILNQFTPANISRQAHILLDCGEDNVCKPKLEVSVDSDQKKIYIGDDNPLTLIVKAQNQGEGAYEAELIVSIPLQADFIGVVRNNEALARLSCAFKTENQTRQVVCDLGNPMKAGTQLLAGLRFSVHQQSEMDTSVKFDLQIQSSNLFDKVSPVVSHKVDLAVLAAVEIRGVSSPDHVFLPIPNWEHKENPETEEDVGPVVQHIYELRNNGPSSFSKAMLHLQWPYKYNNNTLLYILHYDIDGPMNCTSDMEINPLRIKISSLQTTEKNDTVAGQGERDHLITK
# T1 sequence (P06756 891-1048 limits assumed): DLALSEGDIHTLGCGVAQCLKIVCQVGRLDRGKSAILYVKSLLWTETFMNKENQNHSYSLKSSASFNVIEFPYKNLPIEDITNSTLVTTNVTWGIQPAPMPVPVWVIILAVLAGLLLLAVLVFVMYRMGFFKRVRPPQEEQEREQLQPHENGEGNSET
# T1 sequence (P05106 27-788): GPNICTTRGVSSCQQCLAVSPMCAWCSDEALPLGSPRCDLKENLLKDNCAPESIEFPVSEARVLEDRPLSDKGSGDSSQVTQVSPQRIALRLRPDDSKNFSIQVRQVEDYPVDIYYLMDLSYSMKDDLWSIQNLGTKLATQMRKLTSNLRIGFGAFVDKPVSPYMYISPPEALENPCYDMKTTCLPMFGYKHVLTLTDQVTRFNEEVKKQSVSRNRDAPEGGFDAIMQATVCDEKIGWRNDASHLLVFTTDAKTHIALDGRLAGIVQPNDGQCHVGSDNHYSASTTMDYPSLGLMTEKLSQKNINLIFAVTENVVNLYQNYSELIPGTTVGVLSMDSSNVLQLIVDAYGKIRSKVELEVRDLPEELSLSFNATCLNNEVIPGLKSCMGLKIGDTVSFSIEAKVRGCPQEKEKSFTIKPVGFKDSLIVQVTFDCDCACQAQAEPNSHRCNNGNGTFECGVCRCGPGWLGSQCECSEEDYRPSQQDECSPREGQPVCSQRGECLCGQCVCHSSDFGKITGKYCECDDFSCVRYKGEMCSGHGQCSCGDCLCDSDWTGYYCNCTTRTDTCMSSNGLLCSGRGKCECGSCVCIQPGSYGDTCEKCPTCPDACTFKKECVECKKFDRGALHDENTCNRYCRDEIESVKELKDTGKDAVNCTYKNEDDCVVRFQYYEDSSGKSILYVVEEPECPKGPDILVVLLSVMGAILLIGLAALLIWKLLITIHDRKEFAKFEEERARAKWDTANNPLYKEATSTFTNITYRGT
row,IC50 [nM],SMILES
1,32,"N=C(N)NC(=O)CCCOc1ccc(C[C@H](NC(=O)OCC23CC4CC(CC(C4)C2)C3)C(=O)O)cc1 [Example 1, (2S)-2-(1-Adamantylmethyloxycarbonylamino)-3-(4-(3-guanidinocarbonylpropyloxy)phenyl)propionic acid]"
2,32,"O=C(CCc1ccc(C(=O)NC[C@H](NC(=O)OCC23CC4CC(CC(C4)C2)C3)C(=O)O)cc1)NC1=NCCCN1 [Example 3, (2S)-2-(1-Adamantylmethyloxycarbonylamino)-3-(4-(2-(1,4,5,6-tetra-hydropyrimidin-2-ylcarbamoyl)ethyl)benzoylamino)propionic acid]"
